According to patent US20260015322A1, “DELIVERY OF THERAPEUTIC ALKALOID COMPOUNDS” (priority 2022, published 2026):
Like-named read-outs stand apart in the source and are kept apart here. Marks after values point to notes of the source that are not given here.

Experiments:
[1] = Plasma Stability Assay (Example A3), rat plasma; type: in vitro ADME; details: 10 μM, 37° C., prodrug remaining
Description: (§1) The data is represented in the table below.

[2] = Plasma Stability Assay (Example A3), human plasma; type: in vitro ADME; details: 10 μM, 37° C., prodrug remaining
Description: as §1

[3] = Metabolic Stability in Human Hepatocytes; type: in vitro ADME; details: cryopreserved human hepatocytes, 5×10^5 viable cells/mL, 37° C.
Method: A 2.5 uL aliquot of 100 μM test compound was incubated with 247.5 uL of cryopreserved hepatocytes suspended in serum-free incubation medium at 5×10^5 viable cells/mL. The mixture was incubated at 37° C. and shaken at 500 rpm for the designated time points (0.5, 15, 30, 60, 90, or 120 min). At each time point, 25 μL aliquot of incubation mixture was transferred to 125 μL of cold acetonitrile containing internal standard, followed by centrifugation for 30 min at 3,220 g. 100 μL of supernatant was mixed with 100 μL of distilled water for analysis by LC-MS/MS. Peak areas were determined from extracted ion chromatograms and in vitro half-life (t1/2) was determined from the concentration vs time regression slope, in vitro t1/2=0.693/k. Conversion of the in vitro t1/2 (in min) into the in vitro intrinsic clearance (in vitro CLint, in μL/min/10^6 cells) is done using: in vitro CLint=kV/N.

[4] = Plasma Stability Assay (Example A2), mouse plasma; type: in vitro ADME; details: for Metabolite (%): mouse; for Prodrug (%): Mouse Plasma, 37° C., prodrug remaining
Method: (§2) Each test was carried out in duplicate for each time point; 0 min, 15 min, 30 min, 60 min, 120, 240 min. […]

[5] = Pharmacokinetics of 358, single IV 2 mg/kg, plasma and brain; type: in vivo, male C57BL/6 mice; details: 358 IV 2 mg/kg, mice
Method: Total fifteen male mice were used in this study with n=3 mice/time point with sparse sampling study design. Animals were administered through intravenous route with solution formulation of 358 at 2 mg/kg dose.
The extraction procedure for plasma/brain samples and the spiked plasma/brain calibration standards were identical (PMSF Stabilized Plasma and Brain used for Preparation of calibration standards):
(§3) A 20 μL of study sample plasma/brain or spiked plasma/brain calibration standard was added to individual pre-labeled micro-centrifuge tubes followed by 200 μL of internal standard prepared in acetonitrile (Rosuvastatin+Cetrizine, 50 ng/mL) was added except for blank, where 200 μL of acetonitrile was added. Samples were vortexed for 5 minutes. Samples were centrifuged for 10 minutes at a speed of 4000 rpm at 4° C. Following centrifugation, 200 μL of clear supernatant was transferred in 96 well plates and analyzed using LC-MS/MS.
Note: Brain samples were diluted (1-part of tissue: 2-part of buffer) and homogenized. The homogenate was submitted for bioanalysis and the concentrations (ng/mL) received were corrected with dilution factor (3×) and the final reported concentrations were represented in ng/g.
The plasma and brain concentration-time data of 358 and 001 were used for the pharmacokinetic analysis.

[6] = Hydrolysis Assay - Condition 1 (SGF); type: physicochemical; details: Condition 1: SGF with pepsin pH 1.5, 37° C., 0.5 mM
Method: 50 uL of compound (10 mM) in DMSO was diluted into 950 uL of Simulated Gastric Fluid (SGF) with pepsin (pH 1.5) to a final concentration of 0.5 mM. The hydrolysis kinetics were conducted at 37° C. and measured by LCMS at a certain time interval.
(§4) The corresponding LCMS chromatogram were recorded and the conversions were calculated by integration of each peak.
(§5) • 1) LCMS spectra were obtained using Agilent 1200G1956A or SHIMADZU LCMS-2020. • Standard LCMS conditions were as follows (running time 1.55 minutes): • Acidic condition: Mobile Phase A: 0.0375% TFA in water (v/v). Mobile Phase B: 0.01875% TFA in acetonitrile (v/v); Column: Kinetex EVO C18 30*2.1 mm, 5 μm. • Basic condition: Mobile Phase A: 0.025% NH3·H2O in water (v/v). Mobile Phase B: Acetonitrile; Column: Kinetex EVO C18 2.1×30 mm, 5 μm. • 2) Conversion (%)=peak area 1/(peak area 1+peak area 2)*100%, peak area 1 is the integration of hydrolyzed product, peak area 2 is the integration of starting material.

[7] = Hydrolysis Assay - Condition 2 (DI Water); type: physicochemical; details: 25° C., 0.5 mM
Method: 50 uL of compound (10 mM) in DMSO was diluted into 950 uL of DI water to a final concentration of 0.5 mM. The hydrolysis kinetics were conducted at 25° C. and measured by LCMS at a certain time interval.
as §4, §5

[8] = Plasma Stability Assay (Example A2), human plasma; type: in vitro ADME; details: 37° C., prodrug remaining
Method: as §2

[9] = type: in vivo, male C57BL/6 mice; details: 323 IV 2 mg/kg, mice; for CL: marked NR (not reportable)
Method: Total fifteen male mice were used in this study with n=3 mice/time point with sparse sampling study design. Animals were administered through intravenous route with solution formulation of 323 at 2 mg/kg dose.
as §3, with “The extraction procedure for plasma/brain samples and the spiked plasma/brain calibration standards were identical (PMSF Stabilized Plasma and Brain used for Preparation of calibration standards): A” for “A”
Brain samples were diluted (1-part of tissue: 2-part of buffer) and homogenized. The homogenate was submitted for bioanalysis and the concentrations (ng/mL) received were corrected with dilution factor (3×) and the final reported concentrations were represented in ng/g.
The plasma and brain concentration-time data of 323 and 001 were used for the pharmacokinetic analysis.

For `COc1ccc([C@@]23CCC(OP4(=O)OC(C)CC(C)O4)=C[C@@H]2N(C)CC3)cc1OC` (stereo partly drawn) [Compound 423, 2-(((3aS,7aS)-3a-(3,4-dimethoxyphenyl)-1-methyl-2,3,3a,4,5,7a-hexahydro-1H-indol-6-yl)oxy)-4,6-dimethyl-1,3,2-dioxaphosphinane 2-oxide], the “Prodrug (%)” value ([1]; 0 min) was 100.00%, the “Prodrug (%)” value ([1]; 10 min) was >99% and the “Prodrug (%)” value ([1]; 30 min) was >99%. The “Prodrug (%)” value ([1]; 60 min) was 91.05%, the “Prodrug (%)” value ([1]; 120 min) was 83.29% and the “Prodrug (%)” value ([1]; 240 min) was 67.32%. For the same compound, the “Prodrug (%)” value ([2]; 0 min) was 100.00%, the “Prodrug (%)” value ([2]; 10 min) was >99% and the “Prodrug (%)” value ([2]; 30 min) was >99%. The “Prodrug (%)” value ([2]; 60 min) was 98.77%, the “Prodrug (%)” value ([2]; 120 min) was 97.80% and the “Prodrug (%)” value ([2]; 240 min) was 89.67%. For the same compound, the “t1/2” value [3] was 57 min.
With `COc1ccc([C@@]23CCC(OC(=O)OC(C)(C)C)=C[C@@H]2N(C)CC3)cc1OC` [Compound 358, [(3aS,7aS)-3a-(3,4-dimethoxyphenyl)-1-methyl-3,4,5,7a-tetrahydro-2H-indol-6-yl]tert-butyl carbonate] the “Metabolite (%)” value ([4]; 0 min, 5 µM) was 58.8%, the “Metabolite (%)” value ([4]; 15 min, 5 µM) was 65.4% and the “Metabolite (%)” value ([4]; 30 min, 5 µM) was 73.2%. For the same compound, the “Metabolite (%)” value ([4]; 60 min) was 76.9%, the “Metabolite (%)” value ([4]; 120 min) was 61.8% and the “Metabolite (%)” value ([4]; 240 min) was 62.2%. For the same compound, the “brain concentrations quantifiable up to” value [5] was ≤ 0.08 h and the “plasma concentrations quantifiable up to” value [5] was “up to 0.25 h”.
With `COc1ccc([C@@]23CCC(OP4(=O)OCCCO4)=C[C@@H]2N(C)CC3)cc1OC` [Compound 422, 2-(((3aS,7aS)-3a-(3,4-dimethoxyphenyl)-1-methyl-2,3,3a,4,5,7a-hexahydro-1H-indol-6-yl)oxy)-1,3,2-dioxaphosphinane 2-oxide] the “Prodrug (%)” value ([1]; 0 min) was 100.0%, the “Prodrug (%)” value ([1]; 10 min) was >99% and the “Prodrug (%)” value ([1]; 30 min) was >99%. The “Prodrug (%)” value ([1]; 60 min) was >99%, the “Prodrug (%)” value ([1]; 120 min) was 91.0% and the “Prodrug (%)” value ([1]; 240 min) was 76.8%. For the same compound, the “Prodrug (%)” value ([2]; 0 min) was 100.0%, the “Prodrug (%)” value ([2]; 10 min) was 89.4% and the “Prodrug (%)” value ([2]; 30 min) was 73.1%. For the same compound, the “Prodrug (%)” value ([2]; 60 min) was 62.4%, the “Prodrug (%)” value ([2]; 120 min) was 39.2% and the “Prodrug (%)” value ([2]; 240 min) was 19.6%. For the same compound, the “t1/2” value [3] was 366 min.
With `COc1ccc([C@@]23CCC(OP4(=O)OCC(C)(C)CO4)=C[C@@H]2N(C)CC3)cc1OC` [Compound 323, 2-[[(3aS,7aS)-3a-(3,4-dimethoxyphenyl)-1-methyl-3,4,5,7a-tetrahydro-2H-indol-6-yl]oxy]-5,5-dimethyl-1,3,2λ5-dioxaphosphinane 2-oxide] the “Conversion (%)” value ([6]; 1 min) was 0%, the “Conversion (%)” value ([6]; 5 min) was 0% and the “Conversion (%)” value ([6]; 30 min) was 0%. For the same compound, the “Conversion (%)” value ([6]; 1 h) was 0%, the “Conversion (%)” value ([6]; 4 h) was 0% and the “Conversion (%)” value ([6]; 24 h) was 0%. The “Conversion (%)” value ([7]; 1 min) was 0%, the “Conversion (%)” value ([7]; 5 min) was 0% and the “Conversion (%)” value ([7]; 30 min) was 0%. For the same compound, the “Conversion (%)” value ([7]; 1 h) was 0%, the “Conversion (%)” value ([7]; 4 h) was 0% and the “Conversion (%)” value ([7]; 24 h) was 0%. For the same compound, the “Prodrug (%)” value ([4]; 0 min) was 100.0%, the “Prodrug (%)” value ([4]; 15 min) was >99% and the “Prodrug (%)” value ([4]; 30 min) was >99%. The “Prodrug (%)” value ([4]; 60 min) was 94.1%, the “Prodrug (%)” value ([4]; 120 min) was 71.9% and the “Prodrug (%)” value ([4]; 240 min) was 50.3%. For the same compound, the “Prodrug (%)” value ([8]; 0 min) was 100%, the “Prodrug (%)” value ([8]; 15 min) was 76.6% and the “Prodrug (%)” value ([8]; 30 min) was 64.5%. The “Prodrug (%)” value ([8]; 60 min) was 38.1%, the “Prodrug (%)” value ([8]; 120 min) was 12.8% and the “Prodrug (%)” value ([8]; 240 min) was 1.60%. The “Prodrug (%)” value ([1]; 0 min) was 100.00%, the “Prodrug (%)” value ([1]; 10 min) was >99% and the “Prodrug (%)” value ([1]; 30 min) was 95.5%. For the same compound, the “Prodrug (%)” value ([1]; 60 min) was 82.0%, the “Prodrug (%)” value ([1]; 120 min) was 58.8% and the “Prodrug (%)” value ([1]; 240 min) was 34.0%. For the same compound, the “Prodrug (%)” value ([2]; 0 min) was 100.00%, the “Prodrug (%)” value ([2]; 10 min) was 86.9% and the “Prodrug (%)” value ([2]; 30 min) was 70.8%. The “Prodrug (%)” value ([2]; 60 min) was 52.7%, the “Prodrug (%)” value ([2]; 120 min) was 27.0% and the “Prodrug (%)” value ([2]; 240 min) was 9.3%. For the same compound, the “t1/2” value [3] was 327 min, the Brain-Kp [9]; 323 was 0.07 and the “brain concentrations quantifiable up to” value [9]; 323 was ≤ 0.5 h. The “Brain concentrations (mean)” value ([9]; 323, 0.08 h) was 22.15 ng/g, the “Plasma concentrations (mean)” value ([9]; 323, 0.08 h) was 332.15 ng/mL and the “Brain concentrations (mean)” value ([9]; 323, 0.25 h) was 8.97 ng/g. For the same compound, the “Plasma concentrations (mean)” value ([9]; 323, 0.25 h) was 91.59 ng/mL, the “Plasma concentrations (mean)” value ([9]; 323, 0.5 h) was 26.34 ng/mL and the “Brain concentrations (mean)” value ([9]; 323, 0.5 h, average of two values) was 4.43^d ng/g. For the same compound, the “Plasma concentrations (mean)” value ([9]; 323, 1 h) was 4.05 ng/mL, the “Plasma concentrations (mean)” value ([9]; 323, 2 h, single value, excluded from data analysis) was 1.03^c ng/mL and the “C0 (back extrapolated concentration)” value ([9]; 323 in Brain) was 33.89 ng/mL. For the same compound, the T1/2 ([9]; 323 in Brain) was 10.8 min, the Vss ([9]; 323 in Brain) was 61.73 L/kg and the CL ([9]; 323 in Brain) was “NR (4350.55) mL/min/kg”. For the same compound, the AUClast ([9]; 323 in Plasma) was 96.00 ng·h/mL, the “C0 (back extrapolated concentration)” value ([9]; 323 in Plasma) was 609.01 ng/mL and the T1/2 ([9]; 323 in Plasma) was 10.2 min. The Vss ([9]; 323 in Plasma) was 3.25 L/kg and the CL ([9]; 323 in Plasma) was “NR (343.84) mL/min/kg”.
